{"source": "paper PMC8877061", "about": "“Antifungal and Antibiofilm Activity of Cyclic Temporin L Peptide Analogues against Albicans and Non-Albicans Candida Species” (Pharmaceutics, 2022)", "key": {"[1]": {"assay": "Peptide aggregation imaged by AFM on mica", "format": "physicochemical", "description": "XE-100 Atomic Force Microscopy (AFM) (by Park Systems, Suwon, Korea) was used for the imaging of the most promising peptide (3) with and without liposome interaction. Surface imaging was obtained in non-contact mode using SSS-NCHR 10 M (by Park Systems) Si/Al-coated cantilever with a sharp tip (typical tip radius: 2 nm, <5 nm max), a resonance frequency between 200 and 400 kHz and a nominal force constant of 42 N/m. […] The AFM images were processed and analyzed by the home software (XEI by Park Systems). The images were flattened to remove the background slope and adjusted in terms of contrast and brightness. For the sample preparation for AFM, the AFM imaging was performed on a substrate of a Muscovite mica surface (of about 1 cm^2 in area) that owned a root mean square (rms) surface roughness of less than 0.5 nm on a 1000 × 1000 nm^2 area. The 3-µL aliquots of the sample solutions were casted on mica immediately after cleavage with adhesive tape to establish their cleanliness and charge activity. In fact, after the cleavage, the K^+ ions bonding the mica layers were highly mobile, resulting in a positive overcharging of the mica surface, which enabled the deposition of molecules that held a […]. After 2 min, every sample was gently washed with deionized water to remove the sample excesses and then dried at room temperature under a ventilated fume hood."}, "[2]": {"test_system": "C. albicans ATCC 90028 biofilms", "assay": "Eradication of preformed biofilm, bright-field microscopy", "format": "cell-based", "conditions": "peptide 12.5 μM", "method": "Biofilm inhibition and eradication assays were performed as previously described in [37]. […] After the incubation period, non-adherent cells were detached by washing each sample three times in sterile PBS. Then, the samples were fixed, and the biofilms were stained with a 0.1% solution of crystal violet. To test the effect against the established biofilm, fresh growth medium containing peptides at the same concentrations was added in the preformed 24-h old biofilms and incubated for another 24 h. The total biomass was quantified by a crystal violet assay for the inhibition. The vital biomass was quantified by XTT for test eradication by using the tetrazolium 2,3-bis (2-methoxy-4-nitro-5 sulfophenyl)-5-[(phenylamine) carbonyl]-2H-hydroxide reduction assay (XTT) (Sigma-Aldrich, St. Luis, MO, USA) according to the manufacturer’s instructions. The absorbance was measured spectrophotometrically at 492 nm. The percentages of inhibition or eradication were calculated as follows: % biofilm reduction = Abs control − Abs sample/Abs control × 100.\nOptical microscopy images were acquired by using a Leica AF6000LX-DM6M-Z microscope (Leica Microsystems, Mannheim, Germany) controlled by LAS-X (Leica Application Suite; rel. 3.0.13) software and equipped with a Leica Camera DFC7000T. Images were acquired by focusing on the Petri dish surface with a 50× objective in a bright field. […]"}, "[3]": {"assay": "Peptide aggregation by Thioflavin T fluorescence in LUVs", "format": "physicochemical", "conditions": "LUVs PE/PC/PI/ergosterol 0.1 mM, Tris-HCl/NaCl pH 7.4, 25 °C, titrated 5-50 μM peptide", "method": "The aggregation in the liposomes mimicking fungal membranes (5:4:1:2, w/w/w/w) was evaluated using Thioflavin T (ThT) as a dye probe. The lipid film was prepared by dissolving lipids in chloroform to have a final lipid concentration of 0.1 mM. Then, the solvent was removed under a nitrogen gas stream, and the film was freeze-dried overnight. Lipid films were hydrated with 100 mM NaCl, 10 mM Tris-HCl and a […] ThT buffer at a pH of 7.4 and then treated as described above to obtain LUVs. The LUVs were titrated with a peptide concentration of 5, 10, 15, 20, 30 and 50 μM, and ThT fluorescence was recorded before and after the addition of the peptide using the Varian Cary Eclipse fluorescence spectrometer at 25 °C. The samples were excited at 450 nm (slit width: 10 nm), and the fluorescence emission was recorded at 482 nm (slit width: 5 nm). Aggregation was quantified according to the equation %A = (Ff − F0)/(Fmax − F0) × 100, where Ff indicates the value of fluorescence after the peptide addition, F0 is the initial fluorescence before the addition of the peptide and Fmax is the fluorescence maximum obtained immediately after the peptide addition."}, "G. mellonella larvae": {"test_system": "G. mellonella larvae", "conditions": "in vivo", "method": "Twenty larvae with an average weight of 180–200 mg were used in each group in all assays with 2 control groups; one group was inoculated with PBS, while the other group received no injection as a control to evaluate general viability. A volume of 10 µL of each peptide at different concentrations (12.5, 25.0, and 50.0 µM) was inoculated in each group. All larvae were incubated at 37 °C and monitored daily for survival for 4 days in 3 independent experiments."}, "[4]": {"conditions": "absence of liposomes, peptide 50 μM"}}, "note": "Positions of bridges follow the written chain, without caps; N, C: chain ends. Non-standard residues stand in square brackets, D forms with d. Residues, ends and D or L forms follow the SMILES beside them. Triazole bridges read from a SMILES are 1,4-linked. Lys(N3) = [N-]=[N+]=NCCCC[C@H](N)C(=O)O; Pra = C#CC[C@H](N)C(=O)O"}
{"compound": "CC[C@H](C)[C@H](NC(=O)[C@H](CCCNC(=N)N)NC(=O)[C@@H]1CCC(=O)NCCCC[C@H](NC(=O)[C@H](Cc2ccccc2)NC(=O)[C@H](Cc2c[nH]c3ccccc23)NC(=O)[C@@H]2CCCN2C(=O)[C@@H](NC(=O)[C@@H](N)Cc2ccccc2)C(C)C)C(=O)N[C@@H](CCCCN)C(=O)N[C@@H](Cc2ccccc2)C(=O)N[C@H](CC(C)C)C(=O)N1)C(=O)N[C@@H](CC(C)C)C(N)=O", "note": "[compound 3] (H-FVPWFKKF[dL]ERIL-NH2; lactam 6-10; N-terminus assumed)", "values": [{"measurement": "height of aggregates (clusters) on mica by AFM", "setting": "[1]; [4]", "value": "≤ 20", "unit": "nm"}, {"measurement": "width of aggregates (clusters) on mica by AFM", "setting": "[1]; [4]", "value": "up to 300 nm"}, {"measurement": "thickness of peptide layer on mica by AFM, presence of liposomes", "setting": "[1]; after interaction with liposomes mimicking fungal membranes", "value": 4, "unit": "nm"}, {"measurement": "eradication effect on preformed C. albicans biofilms by optical microscopy", "setting": "[2]", "value": "effective in the eradication of biofilm"}]}
{"compound": "CC(C)C[C@H](NC(=O)[C@@H]1CCCCn2cc(nn2)C[C@H](NC(=O)[C@H](CCCCN)NC(=O)[C@H](CO)NC(=O)[C@H](Cc2ccccc2)NC(=O)[C@H](Cc2c[nH]c3ccccc23)NC(=O)[C@@H]2CCCN2C(=O)[C@@H](NC(=O)[C@@H](N)Cc2ccccc2)C(C)C)C(=O)N[C@H](CC(C)C)C(=O)NCC(=O)N[C@@H](CCCNC(=N)N)C(=O)N1)C(N)=O", "note": "[compound 7] (H-FVPWFSK[Pra][dL]GR[Lys(N3)]L-NH2; triazole 8-12; N-terminus assumed)", "values": [{"measurement": "concentration of complete aggregation (ThT fluorescence)", "setting": "[3]", "value": 30, "unit": "µM"}]}
{"compound": "CC[C@H](C)[C@H](NC(=O)[C@H](CCCNC(=N)N)NC(=O)[C@@H]1CCCCNC(=O)CC[C@H](NC(=O)[C@H](Cc2ccccc2)NC(=O)[C@H](Cc2c[nH]c3ccccc23)NC(=O)[C@@H]2CCCN2C(=O)[C@@H](NC(=O)[C@@H](N)Cc2ccccc2)C(C)C)C(=O)N[C@@H](CCCCN)C(=O)N[C@@H](Cc2ccccc2)C(=O)N[C@H](CC(C)C)C(=O)N1)C(=O)N[C@@H](CC(C)C)C(N)=O", "note": "[compound 15] (H-FVPWFEKF[dL]KRIL-NH2; lactam 6-10; N-terminus assumed)", "values": [{"measurement": "toxicity in G. mellonella larvae at 50 μM", "setting": "G. mellonella larvae", "value": "greater toxicity"}]}
